Earlier results in patent US9918986B2, “Methods and compounds for preventing osteoarthritis” (UNIVERSITY COLLEGE CARDIFF CONSULTANTS LIMITED, priority 2013, dated 2018).

Legend:
AMPA receptor = details: cited from earlier work
Kainate receptor = details: cited from earlier work
IL-6 receptor = target: T1, IL-6 receptor (Homo sapiens, UniProt P08887); details: RA patients; cited from earlier work
T1 construct: host or cells: RA patients (endogenous receptor)
T1 sequence (P08887 20-468): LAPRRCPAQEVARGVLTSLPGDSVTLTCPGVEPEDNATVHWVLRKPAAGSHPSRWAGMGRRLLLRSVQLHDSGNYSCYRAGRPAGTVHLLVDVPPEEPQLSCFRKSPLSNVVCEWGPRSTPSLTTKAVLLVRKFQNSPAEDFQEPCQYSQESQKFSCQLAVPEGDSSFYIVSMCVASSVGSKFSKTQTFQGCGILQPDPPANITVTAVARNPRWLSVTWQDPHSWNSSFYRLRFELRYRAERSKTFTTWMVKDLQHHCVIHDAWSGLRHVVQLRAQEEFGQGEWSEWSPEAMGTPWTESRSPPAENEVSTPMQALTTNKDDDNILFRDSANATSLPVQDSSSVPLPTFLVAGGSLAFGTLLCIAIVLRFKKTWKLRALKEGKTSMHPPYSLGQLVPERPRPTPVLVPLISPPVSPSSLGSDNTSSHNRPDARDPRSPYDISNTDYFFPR

human RA FLS = details: cited from earlier work
rodent arthritis = details: oral administration, cited from earlier work

| Compound | AMPA receptor antagonist (AMPA receptor) | Kainate receptor antagonist (Kainate receptor) | other results |
| --- | --- | --- | --- |
| O=C(O)[C@@H]1C[C@H]2C[C@@H](CCc3nn[nH]n3)CC[C@H]2CN1 [Tezampanel] | Yes | Yes | – |
| O=C1Nc2c(cc([N+](=O)[O-])c3c2CCCC3)C1=NO [NS-102] | Weak | Yes | – |
| O=C1N=c2cc([N+](=O)[O-])c([N+](=O)[O-])cc2=NC1=O [DNQX, 6,7-dinitroquinoxaline-2,3-dione] | Yes | Yes | – |
| CCNC(=O)CC[C@H](N)C(=O)O [L-Theanine, gamma-glutamylethylamide or 5-N-ethyl-glutamine] | Yes | Yes | – |
| tocilizumab: anti-IL-6 receptor inhibitor | – | – | synovitis and radiographic changes (IL-6 receptor): significantly improves |
| O=C(O)c1cc(=O)c2ccccc2[nH]1 [Kynurenic acid] | Yes | Yes | – |
| NC(CCCP(=O)(O)O)C(=O)O [D-AP5] | – | – | MMP-2 expression by FLS (human RA FLS): did not affect |
| N#Cc1cc2c(cc1[N+](=O)[O-])=NC(=O)C(=O)N=2 [CNQX, 6-cyano-7-nitroquinoxaline-2,3-dione] | Yes | Yes | – |
| NCCCNCCCCNCCCNC(=O)Cc1cccc2ccccc12 [1-NAS, 1-naphthyl acetyl sperm me] | Yes | No | – |
| C[C@]12N[C@H](Cc3ccccc31)c1ccccc12 [MK801] | – | – | proMMP-2 release (human RA FLS; RA FLS): significantly increased |
| CC1=NN=C(c2ccc(N)cc2)c2cc3c(cc2C1)OCO3 [GYKI52466, 4-(8-Methyl-9H-1,3-dioxolo[4,5-h][2-,3]benzodiazepin-5-yl)-benzenamine] | Yes | Yes | body weight loss (rodent arthritis): attenuated; hyperalgesia (rodent arthritis): attenuated; primary oedema on the right paw (rodent arthritis): no effect; secondary, generalized inflammation-induced swelling of the left paw (rodent arthritis; second phase of chronic disease): no effect |
| Cc1cn(C[C@H](N)C(=O)O)c(=O)n(Cc2cc(-c3ccccc3)sc2C(=O)O)c1=O [ACET] | No | Yes | – |
| COc1cc2c(cc1OC)C(c1ccc(N)cc1)=NNC(=O)C2 [CFM-2, 1-(4′-Aminophenyl)-3,5-dihydro-7,8-dimethoxy-4H-2,3-benzodiazepin-4-one] | Yes | No | MMP-2 expression by FLS (human RA FLS): did not affect |
